Data reported in PubChem BioAssay (NCI).
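Where inhibition never reached the appropriate level, the endpoint shown equals the highest concentration tested. Otherwise, values were interpolated linearly from a five-concentration, 48-hour dose response in 96-well plates. GI50 marks 50% less growth. TGI denotes the concentration required for complete inhibition of growth.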

What was measured:
Assay in all cases: NCI-60 cell line screen, 48 h; in the data active means GI50 below about 0.43 µM; inactive means the rest
BT-549 breast = tested on: BT-549 breast
SF-268 CNS = tested on: SF-268 CNS
UO-31 renal = tested on: UO-31 renal
SK-MEL-2 melanoma = tested on: SK-MEL-2 melanoma
M14 melanoma = tested on: M14 melanoma
SNB-75 CNS = tested on: SNB-75 CNS
OVCAR-8 ovarian = tested on: OVCAR-8 ovarian
ACHN renal = tested on: ACHN renal
K-562 leukemia = tested on: K-562 leukemia
A549 NSCLC = tested on: A549 NSCLC
SNB-19 CNS = tested on: SNB-19 CNS
HOP-62 NSCLC = tested on: HOP-62 NSCLC
COLO 205 colon = tested on: COLO 205 colon
PC-3 prostate = tested on: PC-3 prostate
NCI-H522 lung = tested on: NCI-H522 lung
SK-OV-3 ovarian = tested on: SK-OV-3 ovarian
NCI-H23 lung = tested on: NCI-H23 lung
UACC-257 melanoma = tested on: UACC-257 melanoma
SK-MEL-5 melanoma = tested on: SK-MEL-5 melanoma
U251 CNS = tested on: U251 CNS
T-47D breast = tested on: T-47D breast
786-0 renal = tested on: 786-0 renal
SR leukemia = tested on: SR leukemia
LOX IMVI melanoma = tested on: LOX IMVI melanoma
HS 578T breast = tested on: HS 578T breast
MCF7 breast = tested on: MCF7 breast
KM12 colon = tested on: KM12 colon
OVCAR-4 ovarian = tested on: OVCAR-4 ovarian
HT29 colon = tested on: HT29 colon
OVCAR-3 ovarian = tested on: OVCAR-3 ovarian
DU-145 prostate = tested on: DU-145 prostate
NCI-H226 lung = tested on: NCI-H226 lung
CAKI-1 renal = tested on: CAKI-1 renal
NCI-H460 lung = tested on: NCI-H460 lung
SF-295 CNS = tested on: SF-295 CNS
SN12C renal = tested on: SN12C renal
HCT-116 colon = tested on: HCT-116 colon
A498 renal = tested on: A498 renal
RPMI-8226 leukemia = tested on: RPMI-8226 leukemia
OVCAR-5 ovarian = tested on: OVCAR-5 ovarian
SW-620 colon = tested on: SW-620 colon
NCI/ADR-RES ovarian = tested on: NCI/ADR-RES ovarian
SF-539 CNS = tested on: SF-539 CNS
HL-60(TB) leukemia = tested on: HL-60(TB) leukemia
MDA-MB-435 = tested on: MDA-MB-435
SK-MEL-28 melanoma = tested on: SK-MEL-28 melanoma
IGROV1 ovarian = tested on: IGROV1 ovarian
MDA-MB-231 breast = tested on: MDA-MB-231 breast
MOLT-4 leukemia = tested on: MOLT-4 leukemia
HCT-15 colon = tested on: HCT-15 colon
CCRF-CEM leukemia = tested on: CCRF-CEM leukemia

O=C(NNC(=S)Nc1ccccc1)c1ccccn1
20.8 µM: TGI (SF-539 CNS)
38.4 µM: TGI (RPMI-8226 leukemia)
25.3 µM: TGI (CCRF-CEM leukemia)
7.85 µM: TGI (HL-60(TB) leukemia)
> 100 µM: TGI (BT-549 breast) | TGI (SF-268 CNS) | TGI (SK-MEL-2 melanoma) | TGI (SNB-75 CNS) | TGI (OVCAR-8 ovarian) | TGI (ACHN renal) | TGI (K-562 leukemia) | TGI (SNB-19 CNS) | TGI (HOP-62 NSCLC) | TGI (COLO 205 colon) | TGI (PC-3 prostate) | TGI (NCI-H522 lung) | TGI (SK-OV-3 ovarian) | TGI (NCI-H23 lung) | TGI (SK-MEL-5 melanoma) | TGI (U251 CNS) | TGI (T-47D breast) | TGI (786-0 renal) | TGI (SR leukemia) | TGI (LOX IMVI melanoma) | TGI (HS 578T breast) | TGI (MCF7 breast) | TGI (KM12 colon) | TGI (OVCAR-4 ovarian) | TGI (HT29 colon) | TGI (OVCAR-3 ovarian) | TGI (DU-145 prostate) | TGI (NCI-H226 lung) | TGI (CAKI-1 renal) | TGI (NCI-H460 lung) | TGI (SF-295 CNS) | TGI (SN12C renal) | TGI (HCT-116 colon) | TGI (A498 renal) | TGI (OVCAR-5 ovarian) | TGI (SW-620 colon) | TGI (NCI/ADR-RES ovarian) | TGI (MDA-MB-435) | TGI (SK-MEL-28 melanoma) | TGI (IGROV1 ovarian) | TGI (MDA-MB-231 breast) | TGI (MOLT-4 leukemia) | TGI (HCT-15 colon)
inactive: GI50 (BT-549 breast) 7.41 µM | GI50 (SF-268 CNS) 2.66 µM | GI50 (UO-31 renal) 0.95 µM | GI50 (SK-MEL-2 melanoma) 9.74 µM | GI50 (M14 melanoma) 2.1 µM | GI50 (SNB-75 CNS) 5.97 µM | GI50 (OVCAR-8 ovarian) 2.69 µM | GI50 (ACHN renal) 1.22 µM | GI50 (K-562 leukemia) 3.95 µM | GI50 (A549 NSCLC) 1.56 µM | GI50 (SNB-19 CNS) 2.95 µM | GI50 (HOP-62 NSCLC) 5.52 µM | GI50 (COLO 205 colon) 4.05 µM | GI50 (PC-3 prostate) 2.87 µM | GI50 (NCI-H522 lung) 5.99 µM | GI50 (SK-OV-3 ovarian) 7.33 µM | GI50 (NCI-H23 lung) 6.95 µM | GI50 (UACC-257 melanoma) 2.53 µM | GI50 (SK-MEL-5 melanoma) 2.11 µM | GI50 (U251 CNS) 1.49 µM | GI50 (T-47D breast) 6.55 µM | GI50 (786-0 renal) 2.81 µM | GI50 (SR leukemia) 1.63 µM | GI50 (LOX IMVI melanoma) 2.31 µM | GI50 (HS 578T breast) 23.7 µM | GI50 (MCF7 breast) 3.14 µM | GI50 (KM12 colon) 3.9 µM | GI50 (OVCAR-4 ovarian) 1.46 µM | GI50 (HT29 colon) 4.17 µM | GI50 (OVCAR-3 ovarian) 6.83 µM | GI50 (DU-145 prostate) 3.8 µM | GI50 (NCI-H226 lung) 3.3 µM | GI50 (CAKI-1 renal) 1.37 µM | GI50 (NCI-H460 lung) 1.06 µM | GI50 (SF-295 CNS) 1.97 µM | GI50 (SN12C renal) 2.99 µM | GI50 (HCT-116 colon) 3.02 µM | GI50 (A498 renal) 4.55 µM | GI50 (RPMI-8226 leukemia) 2.69 µM | GI50 (OVCAR-5 ovarian) > 100 µM | GI50 (SW-620 colon) 4.54 µM | GI50 (NCI/ADR-RES ovarian) 2.84 µM | GI50 (SF-539 CNS) 2.43 µM | GI50 (HL-60(TB) leukemia) 2.58 µM | GI50 (MDA-MB-435) 4.29 µM | GI50 (SK-MEL-28 melanoma) 2.8 µM | GI50 (IGROV1 ovarian) 3 µM | GI50 (MDA-MB-231 breast) 3.85 µM | GI50 (MOLT-4 leukemia) 2.84 µM | GI50 (HCT-15 colon) 1.13 µM | GI50 (CCRF-CEM leukemia) 2.18 µM
16.9 µM: TGI (UO-31 renal)
47.7 µM: TGI (A549 NSCLC)
12.3 µM: TGI (M14 melanoma)
21.2 µM: TGI (UACC-257 melanoma)
